How the values were obtained:
[1] = test system: a-syn oligomers in iPSC-derived dopaminergic neurons; assay: a-syn oligomer (Syn-O2) fluorescence in iPSC-derived dopaminergic neurons; assay type: cell-based, human; details: A53T a-syn iPSC-derived dopaminergic neurons
From the text: Further, we used an antibody that has a high binding affinity for oligomeric a-syn and recognizes early soluble oligomers and late fibrils of a-syn (Syn-O2)[54]. This antibody detects these a-syn conformations in cerebrospinal fluid[55] and brain tissue[54] from PD patients. Levels of these a-syn conformations were increased in A53T a-syn neurons (Fig. 6G, H). Further, LAMP1 levels were reduced in A53T a-syn neurons (Fig. 6D, F).
A53T a-syn iCell Dopa neurons (catalog #R1109) and isogenic control iCell Dopa neurons (catalog #R1088) were purchased from Fujifilm Cellular Dynamics (Madison, WI, USA) and cultured as per the manufacturer’s instructions. […]
Confocal images of immunofluorescent staining were acquired with a Zeiss LSM880 confocal microscope equipped with 405, 488, 555, and 639 nm laser lines. All images were taken within the linear range at constant gain and pinhole settings at optimal resolution settings determined by the software. […]
Confocal images of primary cortical neurons, iPSC-derived dopaminergic neurons, and LAMP1 staining within the SN were processed using Imaris software (Oxford instruments). […] Mean pixel intensity per GFP^+ cell (for experiments using GFP-tagged peptides) or RFP^+ cell (for experiments using RFP-tagged peptides) was calculated for a-syn or LAMP1 signal using the software’s surfaces module. […]

A53T a-syn oligomers = assay: Split-YFP PCA/FACS screen of A53T a-syn oligomers; assay type: cell-based, human
From the text: We used a lentiviral library of 50,549 7-mer peptides enriched in PPI motifs[13] on a green fluorescent protein (GFP) scaffold (Fig. 1A). We infected cells in a pooled format and the amino acid sequence of each peptide served as its own barcode. By using a low multiplicity of infection followed by puromycin selection, each infected cell expressed one unique GFP-peptide. We screened for peptides that reduced a-syn-mediated cytotoxicity or a-syn oligomers in parallel (Fig. 1A). To cause cytotoxicity relevant to PD, we induced proteostatic stress in HEK293 cells by inhibiting the proteasome with MG132 and overexpressing human WT a-syn associated with idiopathic PD in one screen or the more toxic mutant A53T a-syn associated with familial PD in a second screen. This combination of a-syn overexpression and pharmacological proteasome inhibition led to death of most cells, with only those that expressed a protective peptide surviving. By extracting genomic DNA from the surviving cells and amplifying the peptide coding sequences, we identified the protective peptides (Fig. 1A). To detect a-syn oligomers, we used a protein fragment complementation assay (PCA) of a-syn oligomerization in HEK293 cells. In this assay, human A53T a-syn was fused to either the C- or N-terminal half of yellow fluorescent protein (YFP). No fluorescence is detectable while a-syn exists in monomers but, when a-syn oligomerizes, the two halves of YFP come in close enough proximity to form a functional, spontaneously fluorescent protein. […] Our screens yielded 10 hits (Table S1). The hit with the most reads (i.e., the most abundant) was the same peptide in all screens: IPIQLKA (named PDpep1) (Table S1). We validated the cytoprotective effects of PDpep1 in HEK293 cells overexpressing WT or A53T a-syn (Figs. 1B, S1A), as well as its ability to reduce WT or A53T a-syn oligomers in a luciferase-based PCA[18]–[20] compared to a scrambled control peptide (Figs. 1C, S1B).
HEK293T cells (ATCC, CRL-3216) were maintained in DMEM supplemented with 10% FBS and 1% pen/strep/glutamine, and the appropriate selection antibiotics when required. Lentiviruses were made in a 15 cm dish format by transfecting packaging cells (HEK293T) with a three-plasmid system (expression vector, psPAX2 and pMD2.G) and using Polyjet DNA transfection reagent (FroggaBio, SL100688.1). Viral transduction of HEK293T cells were performed with a multiplicity of infection (MOI) of 0.3. Infected cells were selected in puromycin-containing medium to eliminate uninfected cells and three aliquots of cells were collected for sampling of the initial (T0) cell population. Cells were treated with MG132 at concentrations of 0, 10, 25, or 50 µM. For the cell viability screen, surviving cells were collected and gDNA was extracted for identification of peptide inhibitors of cell toxicity. For the inhibition of a-syn aggregation screen, a protein fragment complementation assay (PCA) was used by transfecting cells with split YFP-a-syn constructs following stable expression of the peptides. Cells were sorted based on their YFP fluorescence intensities with a FACSVantage SE cell sorter (BD Bioscience) and gDNA was extracted for identification of peptides.
Cells were harvested by trypsin treatment and centrifuged at 500 × g for 5 min. The pellet was resuspended in ice-cold PBS and centrifuged again. The pellet was then resuspended at a concentration of 4 × 10^6 cells/ml in the sorting buffer, which is PBS containing 100 Kunitz DNase I/ml, 10 μg/ml propidium iodide (Sigma), and 2% FBS. The cells were then sent through a 40 μm filter to remove large clumps and loaded into either a FACScan Flow Cytometer (BD Bioscience) for cell analysis or a FACSVantage SE cell sorter (BD Bioscience) for cell sorting. The cells with positive propidium iodide staining (i.e., dead cells) were first eliminated from the analysis. […]

| Substance | Effect on oligomeric a-syn, iPSC neurons [1] | Reads GFP High (A53T a-syn oligomers) | Reads GFP Inter (A53T a-syn oligomers) | Reads GFP Neg (A53T a-syn oligomers) | Reads Ratio (A53T a-syn oligomers) |
| --- | --- | --- | --- | --- | --- |
| DEEIERQLKALG [PDpep1.3] | returned levels of a-syn, including oligomeric a-syn, as well as LAMP1 levels to those of isogenic controls |  |  |  |  |
| IPIQLKA [PDpep1, initial screen hit peptide IPIQLKA] |  | 12 | 2853 | 15556 | 1,218.98 |

— paper PMC10115881, “Disrupting the α-synuclein-ESCRT interaction with a peptide inhibitor mitigates neurodegeneration in preclinical models of Parkinson’s disease” (Nature Communications, 2023)
